# Results taken from BindingDB's records for doi:10.1016/s0960-894x(00)00348-6 (Smithkline Beecham Pharmaceuticals, 2000).
# Target: Tyrosyl-tRNA synthetase (Staphylococcus aureus)
# Assay: Inhibitory activity of compound against tyrosyl tRNA synthetase from Staphylococcus aureus was determined
compound,measurement,value
"N[C@@H](Cc1ccc(O)cc1)C(=O)N[C@@H](C(=O)O)[C@H]1[C@H](O)[C@@H](O)[C@@H](O)CN1O [(R)-[(S)-2-Amino-3-(4-hydroxy-phenyl)-propionylamino]-((2S,3S,4S,5S)-1,3,4,5-tetrahydroxy-piperidin-2-yl)-acetic acid]",IC50,21 nM
